Test results reported in US8426448B2, “1,5-diphenyl-pyrrolidin-2-one compounds as CB-1 ligands” (Eli Lilly and Company, priority 2008, dated 2013).
Where a name gives a salt, the structure may show the parent alone.

Biological target: hCB-1 (Homo sapiens, UniProt P21554)
Assay: hCB1-CHO antagonist mode SPA GTP-γ-35S binding assay
Assay type: biochemical
Set-up: purchased Applied Cell Sciences, Rockville, Md; host or cells: CHO cell membranes
Conditions: antagonist mode vs methanandamide; read-out: hCB-1 SPA GTPγS CHO Membrane Antagonist Kb
Procedure: Compounds of the present invention may be tested for functional activity at the CB-1 and CB-2 receptors in both agonist and antagonist modes using SPA (Scintillation Proximity Assay) based GTP-γ-^35S binding assays. All assay components are prepared in assay buffer (20 mM HEPES, 100 mM NaCl, 5 mM MgCl2, pH 7.4) at room temperature. Semi-log dilutions of test compound are prepared in assay buffer containing BSA (0.125% final conc.) for the agonist mode assays. For the antagonist mode assays, test compounds are prepared in the same manner but also include an 80% efficacious dose of a full agonist (methanandamide). GTP-γ^35S binding for the antagonist assay may be measured in a 96 well format using a modification of an antibody capture technique previously described. (DeLapp, N W, et al. (1999) J Pharmacol Exp Ther 289:946-955.) The CB-2 receptor agonist activity may be measured using a similar method using hCB2-Sf9 membranes. The CB-1 receptor agonist activity may be measured using a whole membrane capture technique using hCB1-CHO membranes. All incubations are done at room temperature.
hCB1-CHO or rCB1-CHO membranes (Applied Cell Sciences, Rockville, Md.) and GDP (1 μM final) are added to ice cold assay buffer and homogenized. […] Plates are then centrifuged at 700×g for 10 min. and the radioactivity counted.
Data are analyzed as follows: Background is subtracted from all wells. […] Percent antagonist inhibition is calculated by first normalizing the data to the signal generated by a saturating concentration of the full agonist (methanandamide). Then the data are analyzed using a 4-parameter logistic reduced fit (Activity Base™ and XLFit3™ from IDBS, Emeryville, Calif.). Kb values are determined using a modification of the Cheng-Prusoff relationship: Kb=IC50/(1+[agonist]/EC50), where “IC50” is determined from a four parameter fit of displacement curves, “[agonist]” is the agonist challenge concentration (nM), and “EC50” is determined from a four parameter fit of a full agonist concentration response curve (Cheng and Prusoff 1973). […]

hCB-1, sequence (P21554 whole entry): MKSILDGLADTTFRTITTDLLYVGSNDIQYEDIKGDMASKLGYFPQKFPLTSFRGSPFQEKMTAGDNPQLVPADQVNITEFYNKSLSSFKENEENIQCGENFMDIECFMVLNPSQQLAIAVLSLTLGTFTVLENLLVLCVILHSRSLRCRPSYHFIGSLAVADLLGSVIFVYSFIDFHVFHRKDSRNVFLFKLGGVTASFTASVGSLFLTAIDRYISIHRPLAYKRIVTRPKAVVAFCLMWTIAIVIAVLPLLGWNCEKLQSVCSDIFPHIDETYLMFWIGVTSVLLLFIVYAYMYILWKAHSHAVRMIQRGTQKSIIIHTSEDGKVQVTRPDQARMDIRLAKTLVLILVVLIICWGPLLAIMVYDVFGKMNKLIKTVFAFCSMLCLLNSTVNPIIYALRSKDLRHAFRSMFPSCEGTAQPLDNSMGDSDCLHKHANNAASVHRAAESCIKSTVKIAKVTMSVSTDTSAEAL

Kb: 0.464 nM
Compound: CC(C)(N[C@@H]1C[C@H](c2cccc(C(F)(F)F)c2)N(c2ccc(OC(F)(F)F)cc2)C1=O)c1cccc(C(F)(F)F)n1 [28 HCl salt, (3R,5R)-3-[1-methyl-1-(6-trifluoromethyl-pyridin-2-yl)-ethylamino]-1-(4-trifluoromethoxy-phenyl)-5-(3-trifluoromethyl-phenyl)-pyrrolidin-2-one]
